Assay results taken from ChEMBL document CHEMBL1201862, “PubChem BioAssay data set” (2004).
One block for each compound: values may come before it. The source made the active and inactive calls.

What was measured:
[1] = target: T1, Ubiquitin-conjugating enzyme E2 N (Homo sapiens, UniProt P61088); type: functional;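 also: Dose-response confirmation in a TR-FRET assay detecting UBC13-driven polyubiquitin chain formation, inhibition measured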
T1 sequence (P61088 whole entry): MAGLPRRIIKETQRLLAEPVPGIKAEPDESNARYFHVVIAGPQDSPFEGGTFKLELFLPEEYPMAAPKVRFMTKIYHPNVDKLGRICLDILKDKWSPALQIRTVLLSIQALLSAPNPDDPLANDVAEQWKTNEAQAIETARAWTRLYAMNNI

[2] = cytotoxicity toward NIH3T3 fibroblasts, dose response, counter-screen, cell-based, ATP luminescence, mouse fibroblasts (AID 2010); type: functional;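 also: cells exposed to compound for about 90 hours before reading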
[3] = target: T2, DNA repair protein RAD52 homolog (Homo sapiens, UniProt P43351); type: functional, biochemical
T2 sequence (P43351 whole entry): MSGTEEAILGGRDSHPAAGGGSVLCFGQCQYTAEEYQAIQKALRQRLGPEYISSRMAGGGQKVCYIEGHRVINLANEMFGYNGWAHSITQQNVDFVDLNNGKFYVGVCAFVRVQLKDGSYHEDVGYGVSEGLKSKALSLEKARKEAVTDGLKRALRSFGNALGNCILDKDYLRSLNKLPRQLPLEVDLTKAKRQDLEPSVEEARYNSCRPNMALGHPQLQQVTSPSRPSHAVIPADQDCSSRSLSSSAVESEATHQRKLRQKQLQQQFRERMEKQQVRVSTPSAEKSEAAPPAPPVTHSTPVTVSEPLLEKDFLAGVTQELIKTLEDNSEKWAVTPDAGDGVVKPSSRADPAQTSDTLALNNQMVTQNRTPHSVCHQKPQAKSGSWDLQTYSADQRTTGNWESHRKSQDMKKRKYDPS

[4] = inhibitors of intracellular T. cruzi replication, confirmation, NIH3T3 host cells, beta-gal luminescence (AID 2044); type: functional, cell-based;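 also: intracellular parasites grown in NIH/3T3 mouse fibroblasts as host cells; luminescent beta-galactosidase reporter signal from transgenic T. cruzi replicating inside host cells; inhibitors lower the luminescence signal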
[5] = target: T3, Polyadenylate-binding protein 1 (Homo sapiens, UniProt P11940); experiment: PABP1 MLLE–PAM2 interaction inhibitors, dose response, miRNA deadenylation inhibitor project, biochemical, fluorescence polarization, Cy5-PAM2 peptide, secondary (AID 602260); type: functional; conditions: read-out: IC50_Mean
T3 sequence (P11940 whole entry): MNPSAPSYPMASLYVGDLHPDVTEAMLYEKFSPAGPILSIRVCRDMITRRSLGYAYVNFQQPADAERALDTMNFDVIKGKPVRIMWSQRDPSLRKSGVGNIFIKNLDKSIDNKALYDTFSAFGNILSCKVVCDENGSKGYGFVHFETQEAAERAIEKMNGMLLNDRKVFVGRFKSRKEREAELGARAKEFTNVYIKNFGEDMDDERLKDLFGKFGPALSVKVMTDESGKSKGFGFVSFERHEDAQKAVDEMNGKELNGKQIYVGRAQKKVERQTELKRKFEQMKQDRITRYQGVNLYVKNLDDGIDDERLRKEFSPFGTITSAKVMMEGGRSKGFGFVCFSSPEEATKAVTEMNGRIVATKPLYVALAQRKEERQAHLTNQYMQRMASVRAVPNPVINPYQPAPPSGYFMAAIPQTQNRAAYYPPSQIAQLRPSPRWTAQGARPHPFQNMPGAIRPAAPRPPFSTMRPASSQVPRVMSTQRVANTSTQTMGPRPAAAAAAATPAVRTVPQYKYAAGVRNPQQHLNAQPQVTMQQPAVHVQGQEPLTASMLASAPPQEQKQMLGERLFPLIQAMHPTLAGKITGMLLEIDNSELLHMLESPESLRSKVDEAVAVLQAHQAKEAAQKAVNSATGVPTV

[6] = target: T3, Polyadenylate-binding protein 1; experiment: PABP1 MLLE–PAM2 binding inhibitor potency, dose response, biochemical, fluorescence polarization, FITC-PAM2 peptide (AID 602259); type: functional; conditions: read-out: IC50_Mean
[7] = target: T4, High affinity choline transporter 1 (Homo sapiens, UniProt Q9GZV3); experiment: CHT inhibitors, dose response, cell-based, 5-point CRC, membrane potential dye (AID 504840); type: functional
T4 sequence (Q9GZV3 whole entry): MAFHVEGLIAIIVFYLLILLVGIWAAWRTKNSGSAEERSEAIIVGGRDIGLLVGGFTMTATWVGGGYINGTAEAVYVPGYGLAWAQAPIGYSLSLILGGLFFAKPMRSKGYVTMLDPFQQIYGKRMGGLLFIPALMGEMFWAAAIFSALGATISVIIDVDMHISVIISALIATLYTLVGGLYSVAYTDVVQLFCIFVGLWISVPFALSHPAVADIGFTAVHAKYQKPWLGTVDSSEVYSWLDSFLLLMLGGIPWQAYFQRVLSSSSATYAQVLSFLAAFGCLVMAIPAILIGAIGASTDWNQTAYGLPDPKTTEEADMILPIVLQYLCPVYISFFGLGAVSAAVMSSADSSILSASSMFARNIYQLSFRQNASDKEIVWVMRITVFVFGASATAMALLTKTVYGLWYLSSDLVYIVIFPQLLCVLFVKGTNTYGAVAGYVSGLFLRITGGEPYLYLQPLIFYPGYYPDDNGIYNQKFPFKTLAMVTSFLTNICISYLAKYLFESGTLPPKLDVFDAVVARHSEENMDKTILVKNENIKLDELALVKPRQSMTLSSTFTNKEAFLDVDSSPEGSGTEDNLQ

[8] = C. albicans growth with fluconazole, confirmation, fluorescence, retest (AID 2467); type: functional, cell-based
[9] = NIH-3T3 fibroblast cytotoxicity, dose response, cytotoxicity control, cell-based, fluorescence, Alamar Blue, secondary assay (AID 2327); type: functional;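 also: NIH-3T3 mouse fibroblasts cultured with fluconazole at 8 µg/mL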
[10] = target: T5, Short transient receptor potential channel 4 (Mus musculus, UniProt Q9QUQ5); experiment: mouse TRPC4 channel activators, dose response, cell-based, HEK293 TRPC4/mu-opioid, Fluo-4 calcium (AID 434937); type: functional
T5 sequence (Q9QUQ5 whole entry): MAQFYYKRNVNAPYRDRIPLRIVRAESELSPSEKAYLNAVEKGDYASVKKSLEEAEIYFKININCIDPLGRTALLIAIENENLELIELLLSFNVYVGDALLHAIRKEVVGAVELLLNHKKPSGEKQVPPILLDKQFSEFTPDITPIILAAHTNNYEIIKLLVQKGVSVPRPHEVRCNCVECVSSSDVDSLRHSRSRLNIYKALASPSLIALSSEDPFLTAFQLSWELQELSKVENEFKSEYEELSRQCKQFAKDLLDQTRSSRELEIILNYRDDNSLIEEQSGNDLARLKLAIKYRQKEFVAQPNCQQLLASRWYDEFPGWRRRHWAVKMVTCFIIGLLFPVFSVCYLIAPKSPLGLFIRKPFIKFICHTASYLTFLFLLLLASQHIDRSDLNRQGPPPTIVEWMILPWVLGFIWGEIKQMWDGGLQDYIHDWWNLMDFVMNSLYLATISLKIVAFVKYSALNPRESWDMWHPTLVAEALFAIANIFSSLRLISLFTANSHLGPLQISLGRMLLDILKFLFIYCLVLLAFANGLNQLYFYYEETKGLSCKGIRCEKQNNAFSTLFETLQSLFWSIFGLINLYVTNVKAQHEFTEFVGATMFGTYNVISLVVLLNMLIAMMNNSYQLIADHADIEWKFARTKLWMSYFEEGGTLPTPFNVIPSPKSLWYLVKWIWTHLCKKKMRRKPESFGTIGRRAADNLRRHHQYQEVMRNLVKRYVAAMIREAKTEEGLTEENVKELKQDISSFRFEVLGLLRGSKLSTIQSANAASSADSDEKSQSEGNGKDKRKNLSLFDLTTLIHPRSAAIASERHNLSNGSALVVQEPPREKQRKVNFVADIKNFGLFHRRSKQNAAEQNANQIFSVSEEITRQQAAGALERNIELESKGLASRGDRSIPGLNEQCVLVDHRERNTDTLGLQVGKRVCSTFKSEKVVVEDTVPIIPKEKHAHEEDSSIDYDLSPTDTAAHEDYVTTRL

[11] = system: Streptococcus sp. 'group A'; experiment: growth inhibition of control SK(-) GAS strain, dose response, counter-screen for streptokinase expression inhibitor project, luminescence, kanamycin, BacTiterGlo, confirmation (AID 1900); type: functional, organism-based
Streptococcus = experiment: Group A Streptococcus viability loss, dose response, counter-screen for streptokinase expression inhibitor project, luminescence, BacTiterGlo (AID 1915); type: functional, organism-based;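 also: potency for reduction of bacterial viability or growth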
Aminopeptidase N = target: T6, Aminopeptidase N (Plasmodium falciparum FcB1/Columbia, UniProt O96935); experiment: P. falciparum M1AAP inhibitors, biochemical, fluorogenic H-Leu-NHMec substrate, 1536-well (AID 1445); set-up: species or system Plasmodium falciparum 3D7, 3D7
T6 sequence (O96935 whole entry): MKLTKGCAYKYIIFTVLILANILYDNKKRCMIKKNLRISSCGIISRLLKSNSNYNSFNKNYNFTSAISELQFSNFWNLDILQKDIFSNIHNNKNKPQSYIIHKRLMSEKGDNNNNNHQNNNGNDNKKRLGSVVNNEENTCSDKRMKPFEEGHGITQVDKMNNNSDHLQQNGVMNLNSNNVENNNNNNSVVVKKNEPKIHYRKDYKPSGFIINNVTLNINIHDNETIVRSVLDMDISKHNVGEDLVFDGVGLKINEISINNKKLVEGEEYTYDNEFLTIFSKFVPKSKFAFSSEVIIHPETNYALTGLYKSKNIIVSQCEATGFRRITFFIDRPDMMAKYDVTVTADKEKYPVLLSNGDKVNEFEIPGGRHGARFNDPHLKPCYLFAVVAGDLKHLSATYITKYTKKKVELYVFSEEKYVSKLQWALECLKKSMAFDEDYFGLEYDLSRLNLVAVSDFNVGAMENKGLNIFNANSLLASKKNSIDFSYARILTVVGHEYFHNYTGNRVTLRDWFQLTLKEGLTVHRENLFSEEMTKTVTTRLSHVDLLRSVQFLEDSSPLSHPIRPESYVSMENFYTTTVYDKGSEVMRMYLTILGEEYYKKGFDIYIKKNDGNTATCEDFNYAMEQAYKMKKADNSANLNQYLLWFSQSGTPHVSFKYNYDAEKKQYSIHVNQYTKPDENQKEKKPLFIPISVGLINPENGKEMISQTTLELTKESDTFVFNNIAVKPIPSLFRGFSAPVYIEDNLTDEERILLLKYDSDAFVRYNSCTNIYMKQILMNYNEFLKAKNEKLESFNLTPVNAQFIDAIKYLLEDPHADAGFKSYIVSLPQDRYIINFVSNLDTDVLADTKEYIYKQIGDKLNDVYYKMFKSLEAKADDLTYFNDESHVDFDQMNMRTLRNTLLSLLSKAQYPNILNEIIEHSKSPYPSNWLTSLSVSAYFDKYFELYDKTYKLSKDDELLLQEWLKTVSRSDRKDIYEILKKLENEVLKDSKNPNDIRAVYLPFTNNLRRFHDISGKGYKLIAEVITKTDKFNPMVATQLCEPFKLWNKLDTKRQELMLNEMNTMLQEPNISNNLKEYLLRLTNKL

Paired box protein Pax-8 = Paired box protein Pax-8 (Homo sapiens, UniProt Q06710); experiment: inhibitors of PAX8-driven TPO luciferase reporter, dose response, RMG-I cells, cherry-pick (AID 687027); type: functional, cell-based;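 also: luciferase reporter driven by Pax8 target thyroperoxidase promoter measured by SteadyGlo luminescence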
Paired box protein Pax-8, sequence (Q06710 whole entry, the tested form may be a part): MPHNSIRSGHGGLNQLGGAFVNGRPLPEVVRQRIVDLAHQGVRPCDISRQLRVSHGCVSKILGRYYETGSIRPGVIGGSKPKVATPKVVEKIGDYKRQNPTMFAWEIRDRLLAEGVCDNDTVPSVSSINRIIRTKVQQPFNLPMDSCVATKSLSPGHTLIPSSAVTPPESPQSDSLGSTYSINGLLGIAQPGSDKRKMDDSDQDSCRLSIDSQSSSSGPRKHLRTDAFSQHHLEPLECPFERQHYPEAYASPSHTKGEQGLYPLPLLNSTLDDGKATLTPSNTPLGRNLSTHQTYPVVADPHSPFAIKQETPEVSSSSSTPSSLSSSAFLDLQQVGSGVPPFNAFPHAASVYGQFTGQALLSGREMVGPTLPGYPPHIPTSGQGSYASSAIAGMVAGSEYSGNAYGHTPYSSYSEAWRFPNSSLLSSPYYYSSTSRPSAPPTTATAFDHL

[12] = Fluorescence-based cell-based high throughput dose response assay for inhibitors of the interaction of nucleotide-binding oligomerization domain containing 2 (NOD2) and the receptor-interacting serine-threonine kinase 2 (RIPK2).; type: functional; conditions: Homo sapiens
[13] = inhibitors of clade B AD8 Env fusion, dose response, cell-based, cherry-pick (AID 652062); type: functional;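 also: luciferase signal from cell-cell fusion driven by HIV-1 clade B AD8 Env; potency is for inhibitors of fusion seen as a drop in luminescence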
[14] = ZM109 Env clade C HIV-1 fusion inhibitors, dose response, HeLa effector, CEM target cells, luciferase, cherry-pick (AID 652058); type: functional, cell-based

IC50 [5]: > 66 µM (inactive) | IC50 [6]: > 66 µM (inactive)
Compound: Cc1ccc(CN(C)C(=O)COC(=O)CSc2ccc([N+](=O)[O-])cc2)cc1

IC50 [7]: 12.3 µM (active)
Compound: O=C(NCCCN1CCOCC1)c1ccc(Cl)c(S(=O)(=O)N2CCCCCC2)c1

IC50 [7]: 10.1 µM (active) | IC50 (Aminopeptidase N): 61.7 µM (active)
Compound: Cc1nn2c(N3CCN(C)CC3)c3c(nc2c1-c1ccccc1)CCCC3

IC50 [5]: > 66 µM (inactive) | IC50 [6]: > 66 µM (inactive)
Compound: CC(=O)NCC/N=C(\C)c1sc2ccccc2c1O

Further lines, the compound ahead of its results:

Compound: COc1cccc(OCC(O)CN2CCN(CCN3C(=O)c4cccc5cccc(c45)C3=O)CC2)c1 (configuration not stated)
IC50 [1]: > 20 µM (inactive) | EC50 [2]: > 60 µM (inconclusive) | AC50 [3]: 18.2 µM (active) | EC50 [4]: 1.59 µM (active)

Compound: O=C1NC(=O)/C(=C/c2cccc3ccccc23)S1
EC50 [8]: 0.76 µM (active) | EC50 [9]: > 160 µM (inactive) | IC50 [7]: 11 µM (active)

Compound: Cc1onc(-c2ccccc2)c1C(=O)NC(=S)NNC(=O)c1ccco1
EC50 [10]: 10.6 µM (active) | EC50 [11]: 2.79 µM (active) | IC50 [7]: 15.8 µM (active) | EC50 (Streptococcus): 10.6 µM (active)

Compound: CCOC(=O)c1c(C)n(-c2ccc(C)cc2)c2ccc(OCC(O)CNCCCO)cc12 (configuration not stated)
IC50 [1]: > 20 µM (inactive) | AC50 [3]: 6.8 µM (active)

Compound: O=C(CSc1ccc2c(c1)OCCO2)NCCc1ccc(Cl)cc1Cl
IC50 [5]: > 66 µM (inactive) | IC50 [6]: > 66 µM (inactive)

Compound: C=CC(=O)N1C/C(=C/c2ccc(Cl)cc2)C(=O)/C(=C\c2ccc(Cl)cc2)C1
AC50 (Paired box protein Pax-8): 1.82 µM (active) | IC50 [12]: 2.58 µM (active)

Compound: CC(=O)C1=C(C)NC(=S)NC1c1ccccc1 (configuration not stated)
AC50 [13]: 45 µM (active) | AC50 [14]: 27 µM (active)

Compound: CNC12CCc3cc(OC)c(OC)c(c31)-c1cc3c(cc1C2)OCO3 (configuration not stated)
AC50 [3]: 9.25 µM (active)
